The NIST ThermoML archive (doi:10.1016/j.jct.2006.12.012)
± gives the expanded uncertainty stated by the source.

Tests used:
[1] = xn = mol fraction of the nth substance listed; conditions: 101 kPa, Liquid, x2 = 0
[2] = 101 kPa, Liquid

Row | Structure (SMILES) | viscosity ([1]; 298.15 K) [mPa·s] | viscosity ([1]; 303.15 K) [mPa·s] | viscosity ([1]; 308.15 K) [mPa·s] | viscosity ([1]; 313.15 K) [mPa·s] | viscosity ([1]; 318.15 K) [mPa·s] | mass density ([2]; 298.15 K) [kg/m3] | viscosity ([2]; 298.15 K) [mPa·s] | mass density ([2]; 303.15 K) [kg/m3] | viscosity ([2]; 303.15 K) [mPa·s] | mass density ([2]; 308.15 K) [kg/m3] | viscosity ([2]; 308.15 K) [mPa·s] | mass density ([2]; 313.15 K) [kg/m3] | viscosity ([2]; 313.15 K) [mPa·s] | mass density ([2]; 318.15 K) [kg/m3] | viscosity ([2]; 318.15 K) [mPa·s]
1 | O [water] + C[S+](C)[O-] | 0.8901 ± 0.012 | 0.7973 ± 0.011 | 0.7193 ± 0.0098 | 0.653 ± 0.009 | 0.5961 ± 0.0083 |  |  |  |  |  |  |  |  |  | 
2 | C[S+](C)[O-] [dimethyl sulfoxide] |  |  |  |  |  | 1096.29 ± 0.28 | 1.996 ± 0.024 | 1091.44 ± 0.28 | 1.836 ± 0.022 | 1086.41 ± 0.27 | 1.669 ± 0.02 | 1081.59 ± 0.26 | 1.535 ± 0.019 | 1076.46 ± 0.25 | 1.393 ± 0.017
